Test results taken from patent publication US4383113A, “Agricultural sulfonamides” (E. I. Du Pont de Nemours and Company, priority 1981, dated 1983).

Experiments:
[1] = system: wild oats; assay: Test A pre-emergence; assay type: in vivo, Avena fatua; set-up: key: 0 = no effect, 10 = maximum effect; letter = response symbol; conditions: 0.4 kg/ha
Summary of the method: (§1)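 Seeds and tubers were treated preemergence in a growth medium with compound in a nonphytotoxic solvent, against untreated controls; emerged plants such as two-leaf barnyardgrass and five-leaf cotton were sprayed postemergence, against solvent-sprayed controls. After sixteen days in a greenhouse, response was rated visually from 0 to 10.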

[2] = system: barnyardgrass; assay: Test A pre-emergence; assay type: in vivo, Echinochloa crusgalli; set-up: key: 0 = no effect, 10 = maximum effect; letter = response symbol; conditions: 0.4 kg/ha
Summary of the method: as §1

[3] = system: crabgrass; assay: Test A pre-emergence; assay type: in vivo, Digitaria spp.; set-up: key: 0 = no effect, 10 = maximum effect; letter = response symbol; conditions: 0.4 kg/ha
Summary of the method: as §1

[4] = system: nutsedge; assay: Test A pre-emergence; assay type: in vivo, Cyperus rotundus; conditions: 0.4 kg/ha
Excerpt: The activity of these compounds was discovered in a number of greenhouse and field tests. The ratings are based on a numerical scale extending from 0=no effect, to 10=maximum effect. The accompanying descriptive symbols have the following meanings:
Seeds of crabgrass (Digitaria spp.), barnyardgrass (Echinochloa crusgalli), wild oats (Avena fatua), cassia (Cassia tora), morningglory (Ipomoea spp.), cocklebur (Xanthium spp.), sorghum, corn, soybean, rice, wheat and nutsedge tubers (Cyperus rotundus) were planted in a growth medium and treated preemergence with a nonphytotoxic solvent solution of the compounds of Table XII. Other batches of seeds and tubers for all of the foregoing weed and crop plants were planted at the same time as controls. The control plantings were untreated; i.e., neither any compound nor any solvent was applied. At the same time, cotton having five leaves (including cotyledonary ones), bush beans with the third trifoliate leaf expanding, crabgrass with two leaves, barnyardgrass with two leaves, wild oats with two leaves, cassia with three leaves (including cotyledonary ones), morningglory with four leaves (including the cotyledonary ones), cocklebur with four leaves (including the cotyledonary ones), sorghum with four leaves, corn with four leaves, soybean with two cotyledonary leaves, rice with three leaves, wheat with one leaf, and nutsedge with three-five leaves were sprayed with a nonphytotoxic solvent solution of the compounds of Table XII. Other groups of all the same weed and crop plants were sprayed with the same nonphytotoxic solvent so as to provide control plants. Preemergence and postemergence treated plants and controls were maintained in a greenhouse for sixteen days, then all treated plants were compared with their respective controls and rated visually for response to treatment.

[5] = system: wheat; assay: Test A pre-emergence; assay type: in vivo; set-up: key: 0 = no effect, 10 = maximum effect; letter = response symbol; conditions: 0.4 kg/ha
Summary of the method: as §1

[6] = system: sorghum; assay: Test A pre-emergence; assay type: in vivo; set-up: key: 0 = no effect, 10 = maximum effect; letter = response symbol; conditions: 0.4 kg/ha
Summary of the method: as §1

[7] = system: corn; assay: Test A pre-emergence; assay type: in vivo; set-up: key: 0 = no effect, 10 = maximum effect; letter = response symbol; conditions: 0.4 kg/ha
Summary of the method: as §1

[8] = system: soybean; assay: Test A pre-emergence; assay type: in vivo; set-up: key: 0 = no effect, 10 = maximum effect; letter = response symbol; conditions: 0.4 kg/ha
Summary of the method: as §1

[9] = system: cassia; assay: Test A pre-emergence; assay type: in vivo, Cassia tora; set-up: key: 0 = no effect, 10 = maximum effect; letter = response symbol; conditions: 0.4 kg/ha
Summary of the method: as §1

[10] = system: morningglory; assay: Test A pre-emergence; assay type: in vivo, Ipomoea spp.; set-up: key: 0 = no effect, 10 = maximum effect; letter = response symbol; conditions: 0.4 kg/ha
Summary of the method: as §1

[11] = system: cocklebur; assay: Test A pre-emergence; assay type: in vivo, Xanthium spp.; set-up: key: 0 = no effect, 10 = maximum effect; letter = response symbol; conditions: 0.4 kg/ha
Summary of the method: as §1

[12] = system: rice; assay: Test A pre-emergence; assay type: in vivo; set-up: key: 0 = no effect, 10 = maximum effect; letter = response symbol; conditions: 0.4 kg/ha
Summary of the method: as §1

[13] = system: purple nutsedge; assay: Test F soil surface spray; assay type: in vivo, Cyperus rotundus
Excerpt: (§2) Purple nutsedge tubers (Cyperus rotundus) were planted about 2 cm deep in Fallsington silt loam contained in plastic pots 10 cm in diameter. Five tubers were put in each pot. Compounds of this invention were sprayed dissolved in a non-phytotoxic solvent at a volume rate of 560 l/ha. in four different methods of treatment, i.e., soil surface spray, tuber/soil spray, soil incorporated and post-emergence. For the soil surface spray, the compounds were sprayed on the firmed soil surface immediately after planting. For the tuber/soil spray, the compounds were sprayed on the exposed tubers and subtending soil before the untreated covering soil was added. Soil incorporation treatments were mixed in the covering soil. Post-emergence treatments were sprayed on the nutsedge foliage and surrounding soil surface after the nutsedge had emerged and had reached the height of about 12 cm.
(§3) Immediately after spraying the surface spray, tuber/soil spray and soil incorporated treatments were misted with about 0.3 cm of water over a 90 minute period and then placed in the greenhouse. Post-emergence treatments were placed directly into the greenhouse and watered carefully so that treatments would not be washed from the foliage.

[14] = system: purple nutsedge; assay: Test F tuber/soil spray; assay type: in vivo, Cyperus rotundus
Excerpt: as §2, §3

[15] = system: purple nutsedge; assay: Test F soil incorporated; assay type: in vivo, Cyperus rotundus
Excerpt: as §2, §3

[16] = system: purple nutsedge; assay: Test F post-emergence; assay type: in vivo, Cyperus rotundus
Excerpt: as §2, §3

Row | Structure (SMILES) | response rating [1] | response rating [2] | response rating [3] | response rating [4] | response rating [5] | response rating [6] | response rating [8] | response rating [9] | response rating [10] | response rating [11] | response rating [12] | further results
1 | COC(=O)c1ccccc1S(=O)(=O)NC(=O)Nc1nc(OC)nc(OC)n1 [drawing 483] | 9G | 9H | 9H | 9G | 9G | 9G | 9H | 9G | 9G | 9G |  | response rating [7]: 9G
2 | COC(=O)c1ccccc1S(=O)(=O)NC(=O)N(C)c1nc(C)cc(C)n1 [drawing 486] | 0 | 2G | 3G | 0 | 4H | 4G | 0 | 0 | 0 |  | 8H | response rating [7]: 3G
3 | COc1nc(C)nc(NC(=O)NS(=O)(=O)c2ccccc2C(=O)OCCCl)n1 [drawing 493] | 8H |  |  | 9G |  |  | 9H |  | 9C | 9G | 9H | 
4 | CCCCCCCCCCOC(=O)c1ccccc1S(=O)(=O)NC(=O)Nc1nc(OC)cc(OC)n1 [drawing 494] | 6G |  | 0 | 5G | 2G | 8G | 3G | 5G | 5G | 9G | 8G | 
5 | CCCCCCCCCCOC(=O)c1ccccc1S(=O)(=O)NC(=O)Nc1nc(C)cc(OC)n1 [drawing 495] |  |  | 0 | 7G | 8G |  |  | 7G | 8G | 9G | 9H | 
6 | CCCCCCCCCCOC(=O)c1ccccc1S(=O)(=O)NC(=O)Nc1nc(OC)nc(OC)n1 [drawing 496] | 0 | 0 | 0 | 0 | 0 | 2H | 1C |  | 4G |  | 0 | response rating [7]: 2G
7 | CCCCCCCCCCOC(=O)c1ccccc1S(=O)(=O)NC(=O)Nc1nc(C)nc(OC)n1 [drawing 497] | 0 | 0 | 2G | 2G | 0 | 3G | 0 |  | 0 |  | 0 | response rating [7]: 4G
8 | COc1cc(OC)nc(NC(=O)NS(=O)(=O)c2ccccc2C(=O)OC2CCCCC2)n1 [drawing 498] | 5G | 9H | 0 | 5G | 3G | 8G |  | 3G | 8G | 8G | 9H | 
9 | COc1nc(NC(=O)NS(=O)(=O)c2ccccc2C(=O)OC2CCCCC2)nc(OC)n1 [drawing 499] | 2G | 9H | 0 | 0 | 2G | 8G | 2C | 2C | 9G | 9C | 5G | 
10 | COc1nc(C)nc(NC(=O)NS(=O)(=O)c2ccccc2C(=O)OC2CCCC2)n1 [drawing 512] | 4G | 9H | 6G | 9G | 4G |  | 9H | 8G | 9G | 9G | 9H | 
11 | COc1nc(C)nc(NC(=O)NS(=O)(=O)c2ccccc2C(=O)OC2CCCCCCC2)n1 [drawing 523] | 7G | 9H | 5G | 7G | 5G |  | 9H | 8G |  | 9G | 9H | 
12 | CCCC(OC(=O)c1ccccc1S(=O)(=O)NC(=O)Nc1nc(C)nc(OC)n1)C(C)C (centres unmarked) [drawing 525] | 5G | 9H | 0 | 5G | 3G |  | 9H | 8G | 9G | 8G | 9H | response rating [7]: 8G
13 | COc1nc(C)nc(NC(=O)NS(=O)(=O)c2ccccc2C(=O)OCc2ccc(Cl)cc2)n1 [drawing 527] | 4G |  |  | 9G | 0 |  | 7H | 8G | 9G | 8G | 9H | 
14 | COC(=O)c1ccccc1S(=O)(=O)NC(=O)Nc1ncccn1 [drawing 596] |  |  |  |  |  |  |  |  |  |  |  | response rating after 4 weeks ([13]; .032 kg/ha): 0; response rating after 4 weeks ([14]; .032 kg/ha): 2G; response rating after 4 weeks ([15]; .032 kg/ha): 0; response rating after 4 weeks ([16]; .032 kg/ha): 0; response rating after 4 weeks ([16]; .125 kg/ha): 9C
15 | COC(=O)c1ccccc1S(=O)(=O)NC(=O)Nc1nnc(C)c(C)n1 [drawing 597] |  |  |  |  |  |  |  |  |  |  |  | response rating after 4 weeks ([13]; .032 kg/ha): 2G; response rating after 4 weeks ([14]; .032 kg/ha): 2G; response rating after 4 weeks ([15]; .032 kg/ha): 3G; response rating after 4 weeks ([16]; .032 kg/ha): 0; response rating after 4 weeks ([16]; .125 kg/ha): 9C; response rating after 4 weeks ([16]; .5 kg/ha): 10C
16 | COc1nc(NC(=O)NS(=O)(=O)c2ccccc2C(=O)OC(C)C)nc(OC)n1 [drawing 600] |  |  |  |  |  |  |  |  |  |  |  | response rating after 4 weeks ([13]; .004 kg/ha): 8G; response rating after 4 weeks ([13]; .008 kg/ha): 8G; response rating after 4 weeks ([14]; .004 kg/ha): 7G; response rating after 4 weeks ([14]; .008 kg/ha): 8G; response rating after 4 weeks ([15]; .004 kg/ha): 8G; response rating after 4 weeks ([15]; .008 kg/ha): 8G; response rating after 4 weeks ([16]; .004 kg/ha): 8C; response rating after 4 weeks ([16]; .008 kg/ha): 9C; response rating after 4 weeks ([16]; .016 kg/ha): 9C; response rating after 4 weeks ([16]; .032 kg/ha): 10C
17 | COC(=O)c1cc(Cl)ccc1S(=O)(=O)NC(=O)Nc1nc(OC)nc(OC)n1 [drawing 603] |  |  |  |  |  |  |  |  |  |  |  | response rating after 4 weeks ([13]; .008 kg/ha): 3G; response rating after 4 weeks ([13]; .032 kg/ha): 7G; response rating after 4 weeks ([13]; .125 kg/ha): 9G; response rating after 4 weeks ([14]; .008 kg/ha): 4G; response rating after 4 weeks ([14]; .032 kg/ha): 7G; response rating after 4 weeks ([14]; .125 kg/ha): 9G; response rating after 4 weeks ([15]; .008 kg/ha): 5G; response rating after 4 weeks ([15]; .032 kg/ha): 7G; response rating after 4 weeks ([15]; .125 kg/ha): 9G; response rating after 4 weeks ([16]; .008 kg/ha): 3G; response rating after 4 weeks ([16]; .125 kg/ha): 10C
18 | COC(=O)c1cc(Cl)ccc1S(=O)(=O)NC(=O)Nc1nc(C)cc(OC)n1 [drawing 604] |  |  |  |  |  |  |  |  |  |  |  | response rating after 4 weeks ([13]; .032 kg/ha): 9G; response rating after 4 weeks ([14]; .008 kg/ha): 7G; response rating after 4 weeks ([15]; .008 kg/ha): 7G; response rating after 4 weeks ([16]; .032 kg/ha): 9C; response rating after 4 weeks ([16]; .125 kg/ha): 9C
